7 compounds from ChEMBL document CHEMBL4000169, “Overexpression of the Global Regulator LaeA in Chaetomium globosum Leads to the Biosynthesis of Chaetoglobosin Z” (J Nat Prod, 2016) can be followed below.

pIC50: −log10 of the molar value.

In this test the test system is HepG2. The test can be described thus: Cytotoxicity against human HepG2 cells by MTT assay. Format: functional, cell-based.
With `CC1=C(C)[C@H]2[C@H](Cc3c[nH]c4ccccc34)NC(=O)[C@]23C(=O)CCC(=O)[C@H](O)/C(C)=C/[C@@H](C)C/C=C/[C@H]3[C@@H]1O`, the negative logarithm of the IC50 (pIC50) was 5.07.

For `C/C1=C\[C@@H](C)C/C=C/[C@H]2C(=O)[C@@H](C)[C@@H](C)[C@H]3[C@H](Cc4c[nH]c5ccccc45)NC(=O)[C@]32C(=O)/C=C/C(=O)[C@@H]1O`, the pIC50 was 5.54.

Take `CC1=C(O)C(=O)[C@H]2CC(=O)[C@@]34C(=O)N[C@@H](Cc5c[nH]c6ccccc56)[C@@H]3C(C)=C(C)[C@@H](O)[C@@H]4/C=C/C[C@H](C)[C@H]12`: the pIC50 was 4.89. Against the preceding compound, the pIC50 is 0.65 log units lower.

In the case of `C/C1=C\[C@@H](C)C/C=C/[C@H]2[C@@H]3O[C@]3(C)[C@@H](C)[C@H]3[C@H](Cc4c[nH]c5ccccc45)NC(=O)[C@]32C(=O)/C=C/C(=O)[C@@H]1O` [CHAETOGLOBOSIN A], the negative logarithm of the IC50 (pIC50) is 5.20.

`CC1=C(C)[C@H]2[C@H](Cc3c[nH]c4ccccc34)NC(=O)[C@]23C(=O)CC[C@H](O)C(=O)/C(C)=C/[C@@H](C)C/C=C/[C@H]3[C@@H]1O` [CHAETOGLOBOSIN E] showed a pIC50 of 5.44.

`CC1=C(C)[C@H]2[C@H](Cc3c[nH]c4ccccc34)NC(=O)[C@]23C(=O)/C=C/C(=O)[C@H](O)/C(C)=C/[C@@H](C)C/C=C/[C@H]3[C@@H]1O` [CHEATOGLOBOSIN B] had a negative-log IC50 (pIC50) of 5.28.

`COc1cc([C@@H]2c3cc4c(cc3[C@@H](O[C@@H]3O[C@@H]5CO[C@@H](C)O[C@H]5[C@H](O)[C@H]3O)[C@H]3COC(=O)[C@H]23)OCO4)cc(OC)c1O` [ETOPOSIDE] showed a negative-log IC50 (pIC50) of 4.80. This pIC50 lies 0.48 log units lower than the previous one.
